Test [1] deals with human adipose tissue derived stem cells. The experiment in a line: Chemical transdifferentiation of stem cells into neurons with DHA (FIG. 12). The class given is cell-based. Conditions: 24 hours, induction media containing DHA (504) vs induction medium alone. Here is the method: Images were taken 24 hours following incubation in the presence of induction media containing or not containing DHA (504).

The subject of a further test is ischemic stroke. The experiment in a line: DHA administered icv after ischemic stroke (FIG. 7). The class given is in vivo, rats.
Test [2] deals with neurons and neural stem/progenitor cells. Conditions: cited from earlier work.
Test [3] relates to SD male rats, 2 h of MCAo. Conditions: DHA systemically injected; reference 8; cited from earlier work.
Test [4] concerns SD male rats, 2 h of MCAo. The experiment in a line: 2 h MCAo by intraluminal suture, DHA 5 mg/kg IV (FIG. 16-23). The class given is in vivo. Here is the method: (11-12 weeks old); Model: 2 h of MCAo by intraluminal suture; DHA (5 mg/kg) or Saline treatments (IV)—at 3 h from onset of MCAo; BrdU labeling at days 4, 5, 6; Immunohistochemistry on week 2
The next test concerns the target T1, AdipoR1 (Homo sapiens, UniProt Q96A54).
T1 construct: host or cells: human adipose tissue-derived stem cells (hASC); human primary retinal pigment epithelial (ABC) cells
T1 sequence (Q96A54 1-375): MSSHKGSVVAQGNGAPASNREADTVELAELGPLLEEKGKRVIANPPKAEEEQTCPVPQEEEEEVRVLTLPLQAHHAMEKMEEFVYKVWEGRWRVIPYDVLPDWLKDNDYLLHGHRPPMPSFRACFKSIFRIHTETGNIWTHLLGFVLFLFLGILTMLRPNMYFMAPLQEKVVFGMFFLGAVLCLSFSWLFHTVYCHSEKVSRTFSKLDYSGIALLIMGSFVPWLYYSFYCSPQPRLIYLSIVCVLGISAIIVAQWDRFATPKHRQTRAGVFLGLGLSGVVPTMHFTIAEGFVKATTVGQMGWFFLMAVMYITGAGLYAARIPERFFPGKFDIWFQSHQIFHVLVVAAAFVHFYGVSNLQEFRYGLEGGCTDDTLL
The experiment in a line: DHA-d5 / AA-d8 uptake by hASCs overexpressing AdipoR1, LC-MS/MS, with adiporon (FIG. 11). The class given is cell-based. As for the experimental part:
Stable clones of hASCs overexpressing AdipoR1 or mCherry following lentivirus transduction, were incubated overnight in the presence or not of DHA-d5 or AA-d8 (1 μM) and vehicle DMSO with various concentrations of AdipoR1 […] adiporon (1-50 μM). […] Compared to DHA-d5 uptake, levels of AA-d8 were extremely low under these conditions.

The mark [5] stands for this setting: DHA 5 mg/kg IV, immunohistochemistry on week 2.

As for `CC/C=C\C/C=C\C/C=C\C/C=C\C/C=C\C/C=C\CCC(=O)O` [DHA, 4,7,10,13,16,19-docosahexanoic acid], the “percentage of morphologically mature neurons” value in test [1] was “strongly increased”. The ischemic brain damage entry in the test with ischemic stroke (DHA at the site where GESC would be administered (icv), 7 days) is listed as “reduced”. Moreover, in the test with ischemic stroke (DHA icv, 7 days), the behavioral functions entry is recorded as “improves”. The “protection by DHA administered icv” value with ischemic stroke (icv) is listed as “protective”. Further, in test [2] (Cao, D et al., 2009), the “neurite growth, synaptogenesis, synaptic protein expression and synaptic functions in hippocamal neuron” value is recorded as “promotes”. In test [2] (DHA supplementation, L. Dagai et al., 2009), the neurite outgrowth result is reported as “accelerated”. Besides, in test [2] (M. Katakura et al., 2009), the “neuronal differentiation of neural stem cells” value is reported as “enhances”. In addition, in test [2] (Nobuyuki Sakayoti et al., 2011), the “number of neurons derived from neural stem/progenitor cells” value is given as “increases”. Besides, the “neuroprotection against ischemic stroke” value in test [3] is given as “neuroprotective”. The total neurologic deficits entry in test [4] (DHA 5 mg/kg IV at 3 h from onset of MCAo vs saline) was “improved”. Further, in test [4] (DHA 5 mg/kg IV, histopathology), the cortical infarct volume entry was “reduced” and the total infarct volume entry is reported as “reduced”. Besides, in test [4] (setting [5]), the “BrdU+/DCX+ cells in cortex, SVZ and DG” value is given as “increased”; the “BrdU+/NeuN+ cells in cortex, SVZ and DG” value is listed as “increased”; the “BrdU+/ki-67+ cells in cortex, SVZ and DG” value was “increased”. In addition, the “neurogenesis in the DG, SVZ and peri-infarct area” value in test [4] (proliferation, differentiation and migration of neural stem cells) is “increased”. Moreover, in test [4] (rat, in vivo), the infarct volume entry was “reduced” and the neurobehavioral recovery result is listed as “promoted”.

On to `O=C(COc1ccc(C(=O)c2ccccc2)cc1)NC1CCN(Cc2ccccc2)CC1` [adiporon], for which the “effect on DHA-d5 uptake of AdipoR1 transduced cells” value at AdipoR1 (adiporon 1-50 μM, 1 μM DHA-d5 overnight) is reported as “further increased”.

Consider `CCCCC/C=C\C/C=C\C/C=C\C/C=C\CCCC(=O)O` [AA-d8], for which the “levels of AA-d8 compared to DHA-d5 uptake” value at AdipoR1 (1 μM AA-d8 overnight in hASCs) is reported as “extremely low”.

These data come from patent publication US20210139846A1, “ENGINEERED CELLS, AND METHODS OF USING THE SAME” (Board of Supervisors of Louisiana State University and …, priority 2017, published 2021).
